# Where two headings read alike, the source gives them in different places.
# System: 280 human cancer cell lines
# Assay: OncoPanel cell proliferation assay (10-day)
# Assay type: cell-based
# Conditions: Homo sapiens; for GI50: read-out: Cell Count GI50; for IC50: read-out: Cell Count IC50; for EC50: read-out: Cell Count EC50
# [1] = KHOS-240S, Soft Tissue - Osteosarcoma
# [2] = ME-180, ME-180, Female GU - Ovary
# [3] = MG-63, MG-63, Soft Tissue - Osteosarcoma
# [4] = MHH-PREB-1, MHH-PREB-1, Leukemia
# [5] = MIA PaCa-2, Mia PaCa-2, Pancreas
# [6] = MS751, MS751, Female GU - Ovary
# [7] = Malme-3M, MALME3M, Skin (Melanoma)
structure (smiles),measurement,setting,value
"CC(C)=CCC[C@H](CO)[C@@H]1CC[C@@H](C)c2c1cc(C)c(O)c2O [Compound 1, 7,8,18-trihydroxyserrulat-14-ene]",GI50,[1],950 nM
same,IC50,[1],950 nM
same,EC50,"KLE, Female GU - Uterus",3700 nM
same,GI50,"KLE, Female GU - Uterus",3560 nM
same,IC50,"KLE, Female GU - Uterus",3820 nM
same,EC50,"KPL-1, KPL-1, Breast",810 nM
same,GI50,"KPL-1, KPL-1, Breast",810 nM
same,IC50,"KPL-1, KPL-1, Breast",810 nM
same,EC50,"KU812, KU812, Leukemia",2810 nM
same,GI50,"KU812, KU812, Leukemia",2570 nM
same,IC50,"KU812, KU812, Leukemia",2810 nM
same,EC50,"L-428, L-428, Lymphoma",1080 nM
same,GI50,"L-428, L-428, Lymphoma",1080 nM
same,IC50,"L-428, L-428, Lymphoma",1090 nM
same,EC50,"LNCaP, Prostate",3900 nM
same,GI50,"LNCaP, Prostate",3470 nM
same,IC50,"LNCaP, Prostate",3900 nM
same,EC50,"LS-123, LS123, Colon",1130 nM
same,GI50,"LS-123, LS123, Colon",1030 nM
same,IC50,"LS-123, LS123, Colon",1160 nM
same,EC50,"LS-411N, LS411N, Colon",8720 nM
same,GI50,"LS-411N, LS411N, Colon",8510 nM
same,IC50,"LS-411N, LS411N, Colon",8720 nM
same,EC50,"LS-1034, LS1034, Colon",1870 nM
same,GI50,"LS-1034, LS1034, Colon",1830 nM
same,IC50,"LS-1034, LS1034, Colon",1870 nM
same,EC50,"M059J, CNS - Glioma",3090 nM
same,GI50,"M059J, CNS - Glioma",3020 nM
same,IC50,"M059J, CNS - Glioma",3090 nM
same,EC50,"MC116, MC116, Lymphoma",3790 nM
same,GI50,"MC116, MC116, Lymphoma",3780 nM
same,IC50,"MC116, MC116, Lymphoma",3790 nM
same,EC50,"MC-IXC, CNS - Neuroblastoma",4010 nM
same,GI50,"MC-IXC, CNS - Neuroblastoma",4000 nM
same,IC50,"MC-IXC, CNS - Neuroblastoma",4010 nM
same,EC50,"MCF7, MCF7, Breast",1370 nM
same,GI50,"MCF7, MCF7, Breast",1350 nM
same,IC50,"MCF7, MCF7, Breast",1370 nM
same,EC50,"MDA-MB-231, MDA MB 231, Breast",1470 nM
same,GI50,"MDA-MB-231, MDA MB 231, Breast",1470 nM
same,IC50,"MDA-MB-231, MDA MB 231, Breast",1480 nM
same,EC50,"MDA-MB-436, MDA-MB-436, Breast",2680 nM
same,GI50,"MDA-MB-436, MDA-MB-436, Breast",2670 nM
same,IC50,"MDA-MB-436, MDA-MB-436, Breast",2690 nM
same,EC50,"MDA-MB-453, MDA MB 453, Breast",780 nM
same,GI50,"MDA-MB-453, MDA MB 453, Breast",770 nM
same,IC50,"MDA-MB-453, MDA MB 453, Breast",780 nM
same,EC50,"MDA-MB-468, MDA MB 468, Breast",2750 nM
same,GI50,"MDA-MB-468, MDA MB 468, Breast",2740 nM
same,IC50,"MDA-MB-468, MDA MB 468, Breast",2760 nM
same,EC50,[2],2250 nM
same,GI50,[2],2210 nM
same,IC50,[2],2260 nM
same,EC50,"MEG-01, MEG01, Leukemia",7350 nM
same,GI50,"MEG-01, MEG01, Leukemia",7220 nM
same,IC50,"MEG-01, MEG01, Leukemia",7350 nM
same,EC50,"MES-SA, Soft Tissue - Sarcoma",1230 nM
same,GI50,"MES-SA, Soft Tissue - Sarcoma",1220 nM
same,IC50,"MES-SA, Soft Tissue - Sarcoma",1230 nM
same,EC50,[3],9240 nM
same,GI50,[3],9160 nM
same,IC50,[3],9240 nM
same,EC50,[4],6170 nM
same,GI50,[4],6170 nM
same,IC50,[4],6170 nM
same,EC50,[5],2970 nM
same,GI50,[5],2970 nM
same,IC50,[5],2970 nM
same,EC50,"MOLT-3, MOLT-3, Leukemia",2130 nM
same,GI50,"MOLT-3, MOLT-3, Leukemia",2110 nM
same,IC50,"MOLT-3, MOLT-3, Leukemia",2130 nM
same,EC50,"MOLT-16, MOLT-16, Leukemia",1840 nM
same,GI50,"MOLT-16, MOLT-16, Leukemia",1840 nM
same,IC50,"MOLT-16, MOLT-16, Leukemia",1840 nM
same,EC50,[6],2230 nM
same,GI50,[6],2210 nM
same,IC50,[6],2230 nM
same,EC50,"MT-3, Colon",3670 nM
same,GI50,"MT-3, Colon",3660 nM
same,IC50,"MT-3, Colon",3670 nM
same,EC50,"MV4-11, MV-4-11, Leukemia",3580 nM
same,GI50,"MV4-11, MV-4-11, Leukemia",3570 nM
same,IC50,"MV4-11, MV-4-11, Leukemia",3580 nM
same,EC50,"MX1, Leukemia",1290 nM
same,GI50,"MX1, Leukemia",1290 nM
same,IC50,"MX1, Leukemia",1290 nM
same,EC50,[7],1790 nM
same,GI50,[7],1660 nM
same,IC50,[7],1790 nM
same,EC50,"MeWo, Skin (Melanoma)",1320 nM
same,GI50,"MeWo, Skin (Melanoma)",1310 nM
same,IC50,"MeWo, Skin (Melanoma)",1320 nM
same,EC50,"NALM-6, NALM-6, Leukemia",1810 nM
same,GI50,"NALM-6, NALM-6, Leukemia",1810 nM
same,IC50,"NALM-6, NALM-6, Leukemia",1810 nM
same,EC50,"NAMALWA, Lymphoma",3390 nM
same,GI50,"NAMALWA, Lymphoma",3390 nM
same,IC50,"NAMALWA, Lymphoma",3390 nM
same,EC50,"NCI-H69, NCI-H69, Lung - SCLC",6300 nM
same,GI50,"NCI-H69, NCI-H69, Lung - SCLC",5840 nM
same,IC50,"NCI-H69, NCI-H69, Lung - SCLC",6440 nM
